Assay [1] has as its target Focal adhesion kinase 1 (Homo sapiens, UniProt Q05397).
Assay [2] has as its target T1, Testis-specific serine/threonine-protein kinase 1 (Homo sapiens, UniProt Q9BXA7).
T1 sequence (Q9BXA7 whole entry): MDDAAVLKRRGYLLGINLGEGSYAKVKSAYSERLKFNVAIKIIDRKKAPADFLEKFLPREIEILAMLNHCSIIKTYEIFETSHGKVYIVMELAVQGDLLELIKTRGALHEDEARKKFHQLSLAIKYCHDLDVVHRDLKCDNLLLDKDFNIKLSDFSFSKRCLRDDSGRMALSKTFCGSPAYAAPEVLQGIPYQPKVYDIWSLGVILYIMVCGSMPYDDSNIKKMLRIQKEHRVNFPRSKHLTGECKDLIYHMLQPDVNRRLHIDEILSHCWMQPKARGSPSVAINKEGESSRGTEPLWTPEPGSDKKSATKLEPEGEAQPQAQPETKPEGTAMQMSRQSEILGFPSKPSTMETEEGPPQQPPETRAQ

Assay [3] addresses Myosin light chain kinase 2, skeletal/cardiac muscle (Homo sapiens, UniProt Q9H1R3).
In assay [4] the target is T2, Serine/threonine-protein kinase LATS1 (Homo sapiens, UniProt O95835).
T2 sequence (O95835 whole entry): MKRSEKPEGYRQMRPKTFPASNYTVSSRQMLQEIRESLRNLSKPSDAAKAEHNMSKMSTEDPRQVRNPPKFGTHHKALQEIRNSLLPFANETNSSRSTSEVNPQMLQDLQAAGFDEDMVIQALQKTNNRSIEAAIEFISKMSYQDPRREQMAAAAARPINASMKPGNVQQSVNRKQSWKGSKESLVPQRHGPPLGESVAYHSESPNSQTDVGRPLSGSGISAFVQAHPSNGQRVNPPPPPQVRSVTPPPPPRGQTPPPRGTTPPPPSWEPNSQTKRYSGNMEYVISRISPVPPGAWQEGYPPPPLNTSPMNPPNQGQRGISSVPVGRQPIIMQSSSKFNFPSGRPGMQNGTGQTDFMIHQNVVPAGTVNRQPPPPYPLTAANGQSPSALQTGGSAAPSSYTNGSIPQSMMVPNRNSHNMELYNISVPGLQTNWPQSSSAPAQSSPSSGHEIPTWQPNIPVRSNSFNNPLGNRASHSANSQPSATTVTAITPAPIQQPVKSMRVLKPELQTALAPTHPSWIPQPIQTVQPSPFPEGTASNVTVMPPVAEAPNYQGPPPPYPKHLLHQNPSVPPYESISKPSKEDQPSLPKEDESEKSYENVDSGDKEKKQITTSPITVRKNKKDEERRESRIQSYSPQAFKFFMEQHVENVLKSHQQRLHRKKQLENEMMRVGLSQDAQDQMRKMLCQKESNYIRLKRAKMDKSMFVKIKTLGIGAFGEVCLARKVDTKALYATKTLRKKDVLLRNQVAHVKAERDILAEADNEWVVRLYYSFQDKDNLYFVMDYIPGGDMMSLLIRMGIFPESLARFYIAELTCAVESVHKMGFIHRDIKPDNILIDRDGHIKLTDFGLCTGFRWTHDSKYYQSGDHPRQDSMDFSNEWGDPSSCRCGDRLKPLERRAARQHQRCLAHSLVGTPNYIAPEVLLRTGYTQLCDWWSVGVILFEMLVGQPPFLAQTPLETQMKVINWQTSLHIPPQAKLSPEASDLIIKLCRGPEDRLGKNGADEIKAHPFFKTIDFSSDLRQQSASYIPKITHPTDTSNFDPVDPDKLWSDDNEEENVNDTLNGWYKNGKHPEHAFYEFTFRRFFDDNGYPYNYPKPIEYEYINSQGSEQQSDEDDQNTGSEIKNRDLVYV

The target in assay [5] is Serine/threonine-protein kinase MRCK alpha (Homo sapiens, UniProt Q5VT25).
The target in assay [6] is Atypical kinase COQ8A, mitochondrial (Homo sapiens, UniProt Q8NI60).
For assay [7], the target named is Tyrosine-protein kinase Fgr (Homo sapiens, UniProt P09769).
The target in assay [8] is Serine/threonine-protein kinase Nek7 (Homo sapiens, UniProt Q8TDX7).
The target of assay [9] is Tyrosine-protein kinase SYK (Homo sapiens, UniProt P43405).
In assay [10] the target is Phosphatidylinositol 4,5-bisphosphate 3-kinase catalytic subunit alpha isoform (Homo sapiens, UniProt P42336).

Bounds are passed on as bounds.

5 compounds from ChEMBL document CHEMBL1150977, “A quantitative analysis of kinase inhibitor selectivity” (Nat Biotechnol, 2008) can be followed below.

The term Kd denotes a measure of binding affinity in units of concentration. With `COCC(=O)NC/C=C/c1ccc2ncnc(Nc3ccc(Oc4ccc(C)nc4)c(C)c3)c2c1` [CP-724714], the Kd in assay [1], in assay [2], in assay [3], in assay [4], in [5] and in assay [6] was greater than 10 µM each time. In addition, the Kd in assay [7], in assay [8] and in [9] was greater than 10 µM throughout.

`Nc1nc(Nc2ccc(S(N)(=O)=O)cc2)nn1C(=O)c1c(F)cccc1F` [JNJ-7706621]: the equilibrium dissociation constant (Kd) in assay [2], in [3], in [4], in assay [5], in assay [10] and in assay [8] was greater than 10 µM each time.

For the compound `CCOc1cc2ncc(C#N)c(Nc3ccc(F)c(Cl)c3)c2cc1NC(=O)/C=C/CN(C)C` [PELITINIB], the equilibrium dissociation constant (Kd) is greater than 10 µM in [2]; greater than 10 µM in assay [4]; greater than 10 µM in [5]; greater than 10 µM in [10]; greater than 10 µM in assay [6]; 0.95 µM in assay [7]. Besides, the dissociation constant Kd in assay [8] is greater than 10 µM; in assay [9] it was 7.2 µM.

As for `Oc1ccc(-c2nc(-c3ccncc3)c(-c3ccc(F)cc3)[nH]2)cc1` [SB-202190], the Kd in [1], in [2], in [3], in [4], in assay [5] and in [10] was greater than 10 µM each time. In addition, the Kd in assay [6], in assay [7], in assay [8] and in assay [9] was greater than 10 µM in each case.

Take `NC(=O)c1ccc(-c2nc(-c3ccc4c(c3)OCO4)c(-c3ccccn3)[nH]2)cc1` [SB-431542]: the equilibrium dissociation constant (Kd) in assay [1], in assay [2], in assay [3], in assay [4], in [5] and in assay [10] was greater than 10 µM each time. In addition, the Kd in [6], in [7], in [8] and in [9] was greater than 10 µM in each case.
